Tests used:
[1] = tested on: Pol β null cells; assay: SSB repair through NAD(P)H depletion, Pol β null cells; assay type: cell-based, chicken; settings: 1 mM MMS for up to 4 hours, Pol β null cells
Procedure: SSB repair capacity was determined by a real-time colorimetric assay that measures intracellular NAD(P)H levels (Tano et al., DNA Repair, 6, 869-875 (2007)). PARP-1 activation during SSB repair leads to NAD^+ consumption, which can be indirectly monitored through NAD(P)H depletion (Nakamura et al., Nucleic Acids Res., 31, e104 (2003)). Briefly, 5×10^3 cells/well were seeded into a 96-well plate. After a 30 minute incubation period, the cells were treated with 1 mM MMS quickly followed by the addition of a dye containing XTT (Sigma) and 1-methoxy PMS (Sigma). For up to 4 hours, the NAD(P)H-dependent conversion of the XTT tetrazolium salt to a yellow colored formazan dye was measured spectrophotometrically. Decreases in intracellular NAD(P)H levels were determined through comparison of values to those of the PBS control. Established methods for detecting SSBs have not been adequately characterized for pH effects on DNA structure and chemistry and also lack a high specificity for SSBs, primarily because of artifactual SSB formation. […] The accumulation of SSBs leads to PARP-1 over-activation and the consumption of NAD+, which is indirectly monitored in living cells through the measurement of intracellular NAD(P)H depletion using tetrazolium salts, such as XTT, during chemical exposure (Tano et al., DNA Repair, 6, 869-875 (2007)). […]

[2] = tested on: Chinese hamster ovary (CHO) AA8 cells; assay: OTX-coupled comet assay; assay type: cell-based; settings: 10 minute exposure to 1 mM MMS, CHO AA8
Procedure: Chinese hamster ovary (CHO) AA8 cells were seeded at a concentration 0.5×10^6 cell/mL into several 10 cm culture dishes with 10 mL of MEM-α media (Gibco) supplemented with 10% fetal bovine serum (heat inactivated; Sigma), 100 μg/mL penicillin, and 100 μg/mL streptomycin. These were allowed to grow for 48 hours at 37° C. and 5% CO2. Culture dishes were about 80-85% confluent at harvest.
Before cells were harvested for use in the comet assay, the lysis solution (2.5 M NaCl, 100 mM Na2-EDTA, 10 mM Trizma, pH 10) was completed with the addition of 10% (v/v) DMSO and 1% (v/v) Triton X-100, mixed thoroughly, and refrigerated at 4° C. A 0.5% solution of low melting point agarose (LMPA) was also prepared and allowed to equilibrate to 37° C. in a water bath. Partially frosted microscope slides, pre-coated several days before with 50 μL of 1% normal melting point agarose (NMPA), were labeled and set aside.
Prior to cell harvest, the media was removed and each dish was washed with 10 mL of 1×PBS. An additional 2 mL of 1×PBS was added to each dish and the cells were harvested using a rubber policeman. Harvested cells were combined into 15 mL centrifuged tubes and gently mixed by pipetting to obtain a homogenous cell sample. The cell count was obtained using a hemacytometer. The volume of cell sample needed to obtain 11,000 cells per slide to be prepared was added to a new 15 mL centrifuge tube and centrifuged for 5 minutes at 1,100 RPM. The supernatant was removed and the cell pellet resuspended in 1×PBS at a volume equal to 10 μL per slide to be prepared (e.g. 5 slides×10 μL per slide=50 μL 1×PBS total).
For each slide to be prepared, 10 μL of the cell sample was added to a 1.5 mL centrifuge tube. The cell layer of the slide was created by first gently mixing 100 μL of the 0.5% LMPA with the 10 μL of cell sample in the tube. This mixture was then added to a pre-coated slide and a coverslip placed onto the slide to create a thin layer of the cell mixture. Slides with cell layers were then refrigerated at 4° C. for 15 minutes to solidify the gel. After this incubation, the initial coverslips were removed and an additional 150 μL of 0.5% LMPA was added to each slide. A fresh coverslip was placed onto each slide to create a thin top layer and the slides were refrigerated for another 15 minutes. After removing the coverslip, completed slides that were receiving MMS treatment were placed in a slide chamber containing warmed MEM-α media with 1 mM MMS for 10 minutes. The slide chamber was kept warm by placing it within an incubator held at 37° C. After the 10 minutes, the slides were washed with 1×PBS for 5 minutes at room temperature and then transferred to slide chambers containing the chilled lysis solution. […]

COS(C)(=O)=O [MMS, methyl methanesulfonate]
intracellular NAD(P)H levels [1]: time-dependent decrease but with more extensive depletion occurring as early as 30 minutes | tail moment compared to the untreated control (no MMS) [2]: significant difference in tail moment
